Experimental findings from patent publication US10537558B2 (Bantam Pharmaceutical, LLC, priority 2015, dated 2020) are described below.

As usually defined, the EC50 is the concentration at which the effect is half-maximal.

The assay deals with BJAB cells. Briefly: BJAB cell proliferation (Cell Titer Glo). Format: cell-based. The note with it: Homo sapiens, read-out: EC50. The procedure: Cells were seeded in white Corning Costar 96-well assay plates at 2500 cells/well in 50 μL of medium. Serial dilutions of test compounds were made in cell culture medium/FBS+0.2% DMSO, and transferred to assay plates in a volume of 50 μL (DMSO at 0.1% final). Plates were maintained at 37° C. for approximately 72 hours. The effect of compounds on cell proliferation was evaluated using the Cell Titer Glo reagent (Promega), according to the manufacturer's instructions. Briefly, 100 μL of reagent was added per well, and after a 10 minute incubation luminescence values were determined on a plate reader (Tecan F200PRO). The percent of luminescence signal relative to untreated controls was calculated for each compound concentration, and EC50 values were determined from dose response data by non-linear regression analysis using Prism (GraphPad). The mTor inhibitor Torin1 (Liu, et al. (2010) J. Med. Chem. 53, 7146.) was used as a control. The data are summarized in the compound table provided above.
A general note: In ATP-based viability assays light output follows the ATP content of the culture.

`Cc1cc(F)cc(-c2c(C)nn(-c3nc(-c4ccc(Cl)c(Cl)c4)c(SC(C)C)s3)c2C(=O)O)c1` [Compound 95, 1-(4-(3,4-dichlorophenyl)-5-(isopropylthio)thiazol-2-yl)-4-(3-fluoro-5-methylphenyl)-3-methyl-1H-pyrazole-5-carboxylic Acid]: the EC50 was in the range of 1 to 5 µM.
With `Cc1cc(-c2nc(-n3nc(C)c(-c4cccc(F)c4)c3C(=O)O)sc2SC(C)C)ccc1Cl` [Compound 191, 1-(4-(4-chloro-3-methylphenyl)-5-(isopropylthio)thiazol-2-yl)-4-(3-fluorophenyl)-3-methyl-1H-pyrazole-5-carboxylic Acid], the EC50 lay within 1 to 5 µM.
Turning to `COCCNC(=O)c1ccc(-c2nc(-n3nc(C)c(-c4cccc(F)c4)c3C(=O)O)sc2SC(C)C)cc1` [Compound 220, 4-(3-fluorophenyl)-1-(5-(isopropylthio)-4-(4-((2-methoxyethyl)carbamoyl)phenyl)thiazol-2-yl)-3-methyl-1H-pyrazole-5-carboxylic Acid], the EC50 was greater than 40 µM.
The value for `CC(=O)Nc1ccc(-c2c(C)nn(-c3nc(-c4ccc(Cl)c(Cl)c4)c(SC(C)C)s3)c2C(=O)O)cc1` [Compound 120, 4-(4-acetamidophenyl)-1-(4-(3,4-dichlorophenyl)-5-(isopropylthio)thiazol-2-yl)-3-methyl-1H-pyrazole-5-carboxylic acid] was greater than 50 µM; that for `CCC(C)Sc1sc(-n2nc(C)c(Cc3ccccc3[N+](=O)[O-])c2C(=O)O)nc1-c1ccc(Cl)c(Cl)c1` (stereo not drawn) [Compound 106, 1-(5-(sec-butylthio)-4-(3,4-dichlorophenyl)thiazol-2-yl)-3-methyl-4-(2-nitrobenzyl)-1H-pyrazole-5-carboxylic acid] was 10 to 25 µM; that for `Cc1nn(-c2nc(-c3ccc(Cl)c(Cl)c3)c(SC(C)C)s2)c(C(=O)O)c1-c1cccc(Cl)c1C` [Compound 59, 4-(3-chloro-2-methylphenyl)-1-(4-(3,4-dichlorophenyl)-5-(isopropylthio)thiazol-2-yl)-3-methyl-1H-pyrazole-5-carboxylic Acid] was 5 to 10 µM.
For the compound `Cc1cc(C(F)(F)F)ccc1-c1nc(-n2nc(C)c(-c3cccc(F)c3)c2C(=O)O)sc1SC(C)C` [Compound 217, 4-(3-fluorophenyl)-1-(5-(isopropylthio)-4-(2-methyl-4-(trifluoromethyl)phenyl)thiazol-2-yl)-3-methyl-1H-pyrazole-5-carboxylic acid], the EC50 is less than 1 µM.
`Cc1nn(-c2nc(-c3ncc(C(F)(F)F)cn3)c(SC(C)C)s2)c(C(=O)O)c1-c1cccc(F)c1` [Compound 246, 4-(3-fluorophenyl)-1-(5-(isopropylthio)-4-(5-(trifluoromethyl)pyrimidin-2-yl)thiazol-2-yl)-3-methyl-1H-pyrazole-5-carboxylic Acid]: the EC50 is 10 to 25 µM.
Turning to `Cc1nn(-c2nc(-c3ccc(Cl)c(Cl)c3)c(S(=O)(=O)C(C)C)s2)c(C(=O)O)c1Cc1ccccc1[N+](=O)[O-]` [Compound 55, 1-(4-(3,4-dichlorophenyl)-5-(isopropylsulfonyl)thiazol-2-yl)-3-methyl-4-(2-nitrobenzyl)-1H-pyrazole-5-carboxylic acid], the EC50 was 10 to 25 µM.
Regarding `Cc1nn(-c2nc(C#CC3CC3)c(SC(C)C)s2)c(C(=O)O)c1-c1cccc(F)c1` [Compound 171, 1-(4-(cyclopropylethynyl)-5-(isopropylthio)thiazol-2-yl)-4-(3-fluorophenyl)-3-methyl-1H-pyrazole-5-carboxylic acid], the EC50 is greater than 25 µM.
For the compound `Cc1nn(-c2nc(-c3ccc(Cl)c(Cl)c3)c(SCCC(C)C)s2)c(C(=O)O)c1Cc1ccccc1[N+](=O)[O-]` [Compound 104, 1-(4-(3,4-dichlorophenyl)-5-(isopentylthio)thiazol-2-yl)-3-methyl-4-(2-nitrobenzyl)-1H-pyrazole-5-carboxylic acid], the EC50 fell in the range of 25 to 50 µM.
As for `Cc1nn(-c2nc(-c3ccc(Cl)c(C#N)c3)c(SC(C)C)s2)c(C(=O)O)c1-c1cccc(F)c1` [Compound 218, 1-(4-(4-chloro-3-cyanophenyl)-5-(isopropylthio)thiazol-2-yl)-4-(3-fluorophenyl)-3-methyl-1H-pyrazole-5-carboxylic Acid], the EC50 lay in the range of 5 to 10 µM.
For the compound `COc1ccc(-c2c(C)nn(-c3nc(-c4ccc(Cl)c(Cl)c4)c(SC(C)C)s3)c2C(=O)O)cc1` [Compound 116, 1-(4-(3,4-dichlorophenyl)-5-(isopropylthio)thiazol-2-yl)-4-(4-methoxyphenyl)-3-methyl-1H-pyrazole-5-carboxylic acid], the EC50 was 10 to 25 µM.
Turning to `Cc1ccc(-c2c(C)nn(-c3nc(-c4ccc(Cl)c(Cl)c4)c(SC(C)C)s3)c2C(=O)O)cc1` [Compound 119, 1-(4-(3,4-dichlorophenyl)-5-(isopropylthio)thiazol-2-yl)-3-methyl-4-p-tolyl-1H-pyrazole-5-carboxylic acid], the EC50 was in the range of 10 to 25 µM.
Regarding `Cc1nn(-c2nc(-c3ccc(Cl)c(Cl)c3)c(SC(C)C)s2)c(C(=O)O)c1-c1cc(F)cc(OC2COC2)c1` [Compound 200, 1-(4-(3,4-dichlorophenyl)-5-(isopropylthio)thiazol-2-yl)-4-(3-fluoro-5-(oxetan-3-yloxy)phenyl)-3-methyl-1H-pyrazole-5-carboxylic Acid], the EC50 lay within 1 to 5 µM.
The value for `Cc1nn(-c2nc(-c3ccc(Cl)c(Cl)c3)c(SC(C)C)s2)c(C(=O)O)c1-c1cccc(CO)c1` [Compound 46, 1-(4-(3,4-dichlorophenyl)-5-(isopropylthio)thiazol-2-yl)-4-(3-(hydroxymethyl)phenyl)-3-methyl-1H-pyrazole-5-carboxylic acid] was 10 to 25 µM; that for `Cc1nn(-c2nc(-c3cncnc3)c(SC(C)C)s2)c(C(=O)O)c1-c1cccc(F)c1` [Compound 212, 4-(3-fluorophenyl)-1-(5-(isopropylthio)-4-(pyrimidin-5-yl)thiazol-2-yl)-3-methyl-1H-pyrazole-5-carboxylic Acid] was greater than 40 µM; that for `Cc1nn(-c2nc(-c3ccccc3C(F)(F)F)c(SC(C)C)s2)c(C(=O)O)c1-c1cccc(F)c1` [Compound 252, 4-(3-fluorophenyl)-1-(5-(isopropylthio)-4-(2-(trifluoromethyl)phenyl)thiazol-2-yl)-3-methyl-1H-pyrazole-5-carboxylic acid] was 10 to 25 µM.
The value for `Cc1cc(-c2c(C)nn(-c3nc(-c4ccc(Cl)c(Cl)c4)c(SC(C)C)s3)c2C(=O)O)n(C)n1` [Compound 71, 2′-(4-(3,4-dichlorophenyl)-5-(isopropylthio)thiazol-2-yl)-2,5,5′-trimethyl-3,4′-bi(2H-pyrazole)-3′-carboxylic Acid] was 10 to 25 µM; that for `COc1cc(Cl)ccc1-c1nc(-n2nc(C)c(-c3cccc(F)c3)c2C(=O)O)sc1SC(C)C` [Compound 205, 1-(4-(4-chloro-2-methoxyphenyl)-5-(isopropylthio)thiazol-2-yl)-4-(3-fluorophenyl)-3-methyl-1H-pyrazole-5-carboxylic acid] was 1 to 5 µM; that for `Cc1nn(-c2nc(-c3cccc(C(F)(F)F)c3)c(SC(C)C)s2)c(C(=O)O)c1-c1cccc(F)c1` [Compound 253, 4-(3-fluorophenyl)-1-(5-(isopropylthio)-4-(3-(trifluoromethyl)phenyl)thiazol-2-yl)-3-methyl-1H-pyrazole-5-carboxylic acid] was 5 to 10 µM.
For the compound `Cc1cc(OC(C)C)cc(-c2c(C)nn(-c3nc(-c4ccc(Cl)c(Cl)c4)c(SC(C)C)s3)c2C(=O)O)c1` [Compound 97, 1-(4-(3,4-dichlorophenyl)-5-(isopropylthio)thiazol-2-yl)-4-(3-isopropoxy-5-methylphenyl)-3-methyl-1H-pyrazole-5-carboxylic Acid], the EC50 was in the range of 1 to 5 µM.
For the compound `CCCSc1sc(-n2nc(C)c(Cc3ccccc3NS(C)(=O)=O)c2C(=O)O)nc1-c1ccc(Cl)c(Cl)c1` [Compound 13, 1-(4-(3,4-dichlorophenyl)-5-(propylthio)thiazol-2-yl)-3-methyl-4-(2-(methylsulfonamido)benzyl)-1H-pyrazole-5-carboxylic Acid], the EC50 lay within 25 to 50 µM.
Regarding `Cc1cccc(-c2nc(-n3nc(C)c(-c4cc(C)nc(C)c4)c3C(=O)O)sc2SC(C)C)c1` [Compound 41, 4-(2,6-dimethylpyridin-4-yl)-1-(5-(isopropylthio)-4-m-tolylthiazol-2-yl)-3-methyl-1H-pyrazole-5-carboxylic Acid], the EC50 is 5 to 10 µM.
As to `Cc1noc(C)c1-c1nc(-n2nc(C)c(-c3cc(Cl)cc(Cl)c3)c2C(=O)O)sc1SC(C)C` [Compound 27, 4-(3,5-dichlorophenyl)-1-(4-(3,5-dimethylisoxazol-4-yl)-5-(isopropylthio)thiazol-2-yl)-3-methyl-1H-pyrazole-5-carboxylic Acid], the EC50 was greater than 25 µM.
`Cc1nn(-c2nc(-c3ccc(C(F)(F)F)cc3)c(SC(C)C)s2)c(C(=O)O)c1-c1ccc(F)c(F)c1` [Compound 235, 4-(3,4-difluorophenyl)-1-(5-(isopropylthio)-4-(4-(trifluoromethyl)phenyl)thiazol-2-yl)-3-methyl-1H-pyrazole-5-carboxylic acid]: the EC50 was less than 1 µM.
As to `CCCSc1sc(-n2nc(C)c(Cc3ccccc3[N+](=O)[O-])c2C(=O)O)nc1-c1ccc(Cl)c(Cl)c1` [Compound 10, 1-(4-(3,4-dichlorophenyl)-5-(propylthio)thiazol-2-yl)-3-methyl-4-(2-nitrobenzyl)-1H-pyrazole-5-carboxylic acid], the 50% effective concentration (EC50) lay in the range of 25 to 50 µM.
